Converted amounts (≈) assume the structure as drawn.
Tests used:
Test in all cases: ≥ marks a high value that may be exact or a test limit, other limits are often not marked, values filed in µg/mL are converted to µM
[1] = tested on: Mannheimia haemolytica 82-25
Escherichia coli UB1005 = tested on: Escherichia coli UB1005
[2] = tested on: Salmonella typhimurium ATCC 7731
[3] = tested on: Staphylococcus epidermidis ATCC 12228
[4] = tested on: Bacillus cereus CGMCC 1.932
[5] = tested on: Bacillus subtilis CMCC 63501
[6] = tested on: Pseudomonas aeruginosa PAO1
[7] = tested on: Salmonella enterica subsp. enterica serovar Pullorum ATCC 7913
[8] = tested on: Staphylococcus aureus ATCC 25923
[9] = tested on: Pseudomonas aeruginosa ATCC 27853
Escherichia coli 078 = tested on: Escherichia coli 078
[10] = tested on: Listeria monocytogenes CGMCC 1.1075
[11] = tested on: Enterococcus faecalis ATCC 29212
Escherichia coli K99 = tested on: Escherichia coli K99
Acinetobacter baumannii = tested on: Acinetobacter baumannii
[12] = tested on: Salmonella enterica subsp. enterica serovar Typhimurium ATCC 14028
Escherichia coli K88 = tested on: Escherichia coli K88
[13] = tested on: Staphylococcus aureus ATCC 43300
Streptococcus mutans = tested on: Streptococcus mutans
[14] = tested on: Streptococcus sanguinis NY101
[15] = tested on: Lacticaseibacillus casei ATCC 4646
[16] = tested on: Veillonella atypica PK1910
[17] = tested on: Streptococcus mitis ATCC 903
[18] = tested on: Streptococcus gordonii Challis DL1
[19] = tested on: Bacillus megaterium ATCC 10778
[20] = tested on: Serratia marcescens ATCC 4112
Escherichia coli SBS 363 = tested on: Escherichia coli SBS 363
[21] = tested on: Staphylococcus aureus ATCC 29213
[22] = tested on: Enterobacter cloacae beta-12
Micrococcus luteus A270 = tested on: Micrococcus luteus A270
[23] = tested on: Candida tropicalis IOC 4560
Candida albicans MDM8 = tested on: Candida albicans MDM8
Staphylococcus aureus = tested on: Staphylococcus aureus
[24] = tested on: Pseudomonas aeruginosa PAK
[25] = tested on: Bordetella bronchiseptica CUN 11844-99
[26] = tested on: Escherichia coli ATCC 25922
[27] = tested on: Pseudomonas aeruginosa CUN 4158-02
Micrococcus luteus = tested on: Micrococcus luteus
Fusarium oxysporum = tested on: Fusarium oxysporum

## C[C@H](N)C(=O)N[C@@H](CC(=O)O)C(=O)N[C@@H](CC(=O)O)C(=O)N[C@@H](CC(=O)O)C(=O)N[C@@H](CC(=O)O)C(=O)N[C@@H](CC(=O)O)C(=O)N[C@@H](CC(=O)O)C(=O)O [ADDDDDD]
[1]
  MIC: ≥ 50 µM

## CC(C)[C@H](NC(=O)[C@H](CCCN=C(N)N)NC(=O)[C@H](Cc1c[nH]c2ccccc12)NC(=O)[C@H](CCCN=C(N)N)NC(=O)[C@H](Cc1c[nH]c2ccccc12)NC(=O)[C@H](Cc1c[nH]c2ccccc12)NC(=O)[C@H](Cc1c[nH]c2ccccc12)NC(=O)[C@H](CCCN=C(N)N)NC(=O)[C@H](Cc1c[nH]c2ccccc12)NC(=O)[C@@H](N)CCCN=C(N)N)C(N)=O [RWRWWWRWRV]
Escherichia coli UB1005
  MIC: 8 µM (≈ 13.4 µg/mL)
[2]
  MIC: 8 µM (≈ 13.4 µg/mL)
[3]
  MIC: 4 µM (≈ 6.69 µg/mL)
[4]
  MIC: 16 µM (≈ 26.8 µg/mL)
[5]
  MIC: 4 µM (≈ 6.69 µg/mL)
[6]
  MIC: 16 µM (≈ 26.8 µg/mL)
[7]
  MIC: 4 µM (≈ 6.69 µg/mL)
[8]
  MIC: 4 µM (≈ 6.69 µg/mL)
[9]
  MIC: 16 µM (≈ 26.8 µg/mL)
Escherichia coli 078
  MIC: 4 µM (≈ 6.69 µg/mL)
[10]
  MIC: 1 µM (≈ 1.67 µg/mL)
[11]
  MIC: 4 µM (≈ 6.69 µg/mL)
Escherichia coli K99
  MIC: 8 µM (≈ 13.4 µg/mL)
Acinetobacter baumannii
  MIC: 2 µM (≈ 3.34 µg/mL)
[12]
  MIC: 8 µM (≈ 13.4 µg/mL)
Escherichia coli K88
  MIC: 4 µM (≈ 6.69 µg/mL)
[13]
  MIC: 4 µM (≈ 6.69 µg/mL)

## NC(=O)[C@H](Cc1ccccc1)NC(=O)[C@H](Cc1c[nH]c2ccccc12)NC(=O)[C@H](Cc1c[nH]c2ccccc12)NC(=O)[C@H](Cc1c[nH]c2ccccc12)NC(=O)[C@H](CCCN=C(N)N)NC(=O)[C@H](CCCN=C(N)N)NC(=O)[C@@H](N)CCCN=C(N)N [RRRWWWF]
Streptococcus mutans
  MIC: 4.74 µM (≈ 5.65 µg/mL)
[14]
  MIC: 13.4 µM (≈ 16 µg/mL)
[15]
  MIC: 13.4 µM (≈ 16 µg/mL)
[16]
  MIC: ≥ 53.7 µM
[17]
  MIC: 26.8 µM (≈ 32 µg/mL)
[18]
  MIC: 26.8 µM (≈ 32 µg/mL)

## CC(C)C[C@H](NC(=O)[C@H](C)NC(=O)[C@H](CCCCN)NC(=O)[C@H](CC(C)C)NC(=O)[C@@H](N)Cc1ccccc1)C(=O)N[C@@H](Cc1c[nH]c2ccccc12)C(=O)N[C@@H](CCCCN)C(=O)N[C@H](C(=O)N[C@@H](C)C(=O)N[C@@H](CCCCN)C(=O)N[C@@H](CCCCN)C(=O)N[C@H](C(=O)N[C@@H](Cc1ccccc1)C(N)=O)C(C)C)C(C)C [FLKALWKVAKKVF]
[19]
  MIC: 0.4 µM (≈ 0.631 µg/mL)
[20]
  MIC: 0.1 µM (≈ 0.158 µg/mL)
Escherichia coli SBS 363
  MIC: 1.6 µM (≈ 2.52 µg/mL)
[21]
  MIC: 0.8 µM (≈ 1.26 µg/mL)
[22]
  MIC: 3.1 µM (≈ 4.89 µg/mL)
[3]
  MIC: 3.1 µM (≈ 4.89 µg/mL)
Micrococcus luteus A270
  MIC: 0.4 µM (≈ 0.631 µg/mL)
[23]
  MIC: 0.8 µM (≈ 1.26 µg/mL)
Candida albicans MDM8
  MIC: 1.6 µM (≈ 2.52 µg/mL)

## CC[C@H](C)[C@H](N)C(=O)N[C@@H](CCCCN)C(=O)N[C@@H](CCC(N)=O)C(=O)N[C@@H](CC(C)C)C(=O)N[C@@H](CC(C)C)C(=O)N[C@@H](Cc1cnc[nH]1)C(=O)N[C@@H](Cc1ccccc1)C(=O)N[C@@H](Cc1ccccc1)C(=O)N[C@@H](CCC(N)=O)C(=O)N[C@@H](CCCN=C(N)N)C(=O)N[C@@H](Cc1ccccc1)C(N)=O [IKQLLHFFQRF]
Streptococcus mutans
  MIC: 16.3 µM (≈ 24 µg/mL)
[14]
  MIC: ≥ 42.8 µM
[15]
  MIC: 21.7 µM (≈ 32 µg/mL)
[16]
  MIC: ≥ 43.3 µM
Staphylococcus aureus
  MIC: 42.3 µM (≈ 62.5 µg/mL)
[17]
  MIC: ≥ 42.8 µM
[18]
  MIC: 21.7 µM (≈ 32 µg/mL)
[24]
  MIC: ≥ 42.3 µM

## CC(C)C[C@H](NC(=O)CNC(=O)[C@H](CCCCN)NC(=O)[C@H](Cc1ccccc1)NC(=O)[C@H](CCCCN)NC(=O)[C@H](Cc1c[nH]c2ccccc12)NC(=O)[C@H](CCCN=C(N)N)NC(=O)[C@H](Cc1ccccc1)NC(=O)[C@H](CCCN=C(N)N)NC(=O)[C@H](CCCN=C(N)N)NC(=O)[C@H](Cc1ccc(O)cc1)NC(=O)[C@H](CCCCN)NC(=O)[C@H](CCCCN)NC(=O)CN)C(=O)N[C@@H](Cc1ccccc1)C(=O)N[C@@H](CC(C)C)C(=O)N[C@@H](Cc1ccccc1)C(=O)N[C@@H](CC(C)C)C(=O)NCC(N)=O [GKKYRRFRWKFKGLFLFLG]
[25]
  MIC: 6.54 µM (≈ 16 µg/mL)
[26]
  MIC: 26.1 µM (≈ 64 µg/mL)
[27]
  MIC: 26.1 µM (≈ 64 µg/mL)
[8]
  MIC: 26.1 µM (≈ 64 µg/mL)

## NCC(=O)N[C@@H](CC(=O)O)C(=O)N[C@@H](CC(=O)O)C(=O)N[C@@H](CC(=O)O)C(=O)N[C@@H](CC(=O)O)C(=O)N[C@@H](CC(=O)O)C(=O)N[C@@H](CC(=O)O)C(=O)O [GDDDDDD]
[1]
  MIC: ≥ 60 µM

## CC[C@H](C)[C@H](NC(=O)[C@H](CCCN=C(N)N)NC(=O)[C@H](Cc1c[nH]c2ccccc12)NC(=O)[C@H](CCCN=C(N)N)NC(=O)[C@H](Cc1c[nH]c2ccccc12)NC(=O)[C@H](Cc1c[nH]c2ccccc12)NC(=O)[C@H](Cc1c[nH]c2ccccc12)NC(=O)[C@H](CCCN=C(N)N)NC(=O)[C@H](Cc1c[nH]c2ccccc12)NC(=O)[C@H](CCCN=C(N)N)NC(=O)CN)C(N)=O [GRWRWWWRWRI]
Escherichia coli UB1005
  MIC: 8 µM (≈ 13.9 µg/mL)
[2]
  MIC: 16 µM (≈ 27.9 µg/mL)
[3]
  MIC: 4 µM (≈ 6.97 µg/mL)
[4]
  MIC: 8 µM (≈ 13.9 µg/mL)
[5]
  MIC: 4 µM (≈ 6.97 µg/mL)
[6]
  MIC: 8 µM (≈ 13.9 µg/mL)
[7]
  MIC: 2 µM (≈ 3.49 µg/mL)
[8]
  MIC: 2 µM (≈ 3.49 µg/mL)
[9]
  MIC: 8 µM (≈ 13.9 µg/mL)
Escherichia coli 078
  MIC: 4 µM (≈ 6.97 µg/mL)
[10]
  MIC: 1 µM (≈ 1.74 µg/mL)
[11]
  MIC: 2 µM (≈ 3.49 µg/mL)
Escherichia coli K99
  MIC: 8 µM (≈ 13.9 µg/mL)
Acinetobacter baumannii
  MIC: 2 µM (≈ 3.49 µg/mL)
[12]
  MIC: 4 µM (≈ 6.97 µg/mL)
Escherichia coli K88
  MIC: 4 µM (≈ 6.97 µg/mL)
[13]
  MIC: 4 µM (≈ 6.97 µg/mL)

## NC(=O)[C@H](Cc1c[nH]c2ccccc12)NC(=O)[C@H](CCCN=C(N)N)NC(=O)[C@H](Cc1c[nH]c2ccccc12)NC(=O)[C@H](CCCN=C(N)N)NC(=O)[C@H](Cc1c[nH]c2ccccc12)NC(=O)[C@H](Cc1c[nH]c2ccccc12)NC(=O)[C@H](Cc1c[nH]c2ccccc12)NC(=O)[C@H](CCCN=C(N)N)NC(=O)[C@H](Cc1c[nH]c2ccccc12)NC(=O)[C@@H](N)CCCN=C(N)N [RWRWWWRWRW]
Escherichia coli UB1005
  MIC: 4 µM (≈ 7.04 µg/mL)
[2]
  MIC: 8 µM (≈ 14.1 µg/mL)
[3]
  MIC: 2 µM (≈ 3.52 µg/mL)
[4]
  MIC: 4 µM (≈ 7.04 µg/mL)
[5]
  MIC: 8 µM (≈ 14.1 µg/mL)
[6]
  MIC: 4 µM (≈ 7.04 µg/mL)
[7]
  MIC: 4 µM (≈ 7.04 µg/mL)
[8]
  MIC: 2 µM (≈ 3.52 µg/mL)
[9]
  MIC: 32 µM (≈ 56.3 µg/mL)
Escherichia coli 078
  MIC: 2 µM (≈ 3.52 µg/mL)
[10]
  MIC: 1 µM (≈ 1.76 µg/mL)
[11]
  MIC: 4 µM (≈ 7.04 µg/mL)
Escherichia coli K99
  MIC: 8 µM (≈ 14.1 µg/mL)
Acinetobacter baumannii
  MIC: 2 µM (≈ 3.52 µg/mL)
[12]
  MIC: 8 µM (≈ 14.1 µg/mL)
Escherichia coli K88
  MIC: 2 µM (≈ 3.52 µg/mL)
[13]
  MIC: 2 µM (≈ 3.52 µg/mL)

## CC[C@H](C)[C@H](NC(=O)[C@@H]1CCCN1C(=O)[C@H](CC(C)C)NC(=O)[C@H](Cc1ccc(O)cc1)NC(=O)[C@H](CCCCN)NC(=O)[C@H](CCCCN)NC(=O)[C@H](CC(C)C)NC(=O)[C@H](C)NC(=O)[C@H](CO)NC(=O)[C@H](CC(C)C)NC(=O)[C@H](Cc1ccccc1)NC(=O)CN)C(=O)N[C@H](C(=O)N[C@@H](CC(C)C)C(=O)N[C@@H](CCCCN)C(=O)N[C@@H](Cc1cnc[nH]1)C(=O)N[C@H](C(=O)O)C(C)C)C(C)C [GFLSALKKYLPIVLKHV]
Escherichia coli SBS 363
  MIC: 3.12 µM (≈ 6.02 µg/mL)
Micrococcus luteus
  MIC: 1.56 µM (≈ 3.01 µg/mL)
Fusarium oxysporum
  MIC: 0.78 µM (≈ 1.5 µg/mL)
